According to publication PMC7802075 (ACS Infectious Diseases, 2020):
Structures can show the parent of a compound that is named as a salt.

target: T1, LmjIPCS (inositol phosphorylceramide synthase from L. major) (Leishmania major, UniProt E9AFX2); test: biochemical; format: biochemical; design: inhibition: dose or concentration left out as unconfirmed; conditions: not given
T1 sequence (E9AFX2 1-338): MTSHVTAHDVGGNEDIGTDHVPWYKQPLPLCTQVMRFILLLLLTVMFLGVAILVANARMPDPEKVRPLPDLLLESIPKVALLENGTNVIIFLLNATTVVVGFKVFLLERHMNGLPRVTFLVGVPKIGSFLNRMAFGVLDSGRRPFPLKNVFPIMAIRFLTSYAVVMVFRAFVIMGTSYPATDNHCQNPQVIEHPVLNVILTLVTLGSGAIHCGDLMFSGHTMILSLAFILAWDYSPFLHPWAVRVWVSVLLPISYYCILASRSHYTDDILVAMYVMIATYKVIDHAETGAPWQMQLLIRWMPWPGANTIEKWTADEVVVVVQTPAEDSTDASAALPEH

Row | Molecule | 20mM inhibition LmjIPCS [%]
1 | CN(C)CCc1c[nH]c2ccc(C[C@H]3COC(=O)N3)cc12 [ZOLMITRIPTAN] | 44
2 | CCN(CC)CCOCCOC(=O)C1(c2ccccc2)CCCC1 [CARBETAPENTANE] | 51
3 | CO[C@H]1C[C@H](O[C@@H]2/C(C)=C/C[C@@H]3C[C@@H](C[C@]4(CC[C@H](C)[C@@H](C5CCCCC5)O4)O3)OC(=O)[C@@H]3C=C(C)/C(=N/O)[C@H]4OC/C(=C\C=C\[C@@H]2C)[C@]43O)O[C@@H](C)[C@@H]1O [SELAMECTIN] | 45
4 | CCN1CCCC(OC(=O)C(c2ccccc2)c2ccccc2)C1 (centres unmarked) [PIPERIDOLATE] | 39
5 | COc1cc2c(cc1OC)-c1cc3ccc(OC)c(OC)c3c[n+]1CC2 [PALMATINE] | 8
6 | CC(C)COCC(CN(Cc1ccccc1)c1ccccc1)N1CCCC1 (centres unmarked) [BEPRIDIL] | 61
7 | Nc1ccc(C(=O)[O-])cc1.[K+] [POTASSIUM p-AMINOBENZOATE] | 40
8 | CCN1CCCC1CNC(=O)c1cc(S(N)(=O)=O)ccc1OC (centres unmarked) [SULPIRIDE] | 43
9 | CCCc1nn(C)c2c(=O)[nH]c(-c3cc(S(=O)(=O)N4CCN(C)CC4)ccc3OCC)nc12 | 50
10 | CCC1(CC)C(=O)C=CNC1=O [PYRITHYLDIONE] | 52
11 | CCC(=O)O[C@]1(C(=O)CCl)[C@@H](C)C[C@H]2[C@@H]3CCC4=CC(=O)C=C[C@]4(C)[C@@]3(F)[C@@H](O)C[C@@]21C [CLOBETASOL PROPRIONATE] | 17

same assay, conditions: NINDS set screen, single concentration 20mM as printed

Row | Molecule | 20mM inhibition LmjIPCS [%]
12 | O=C(O)CN(CCN(CC(=O)O)CC(=O)O)CC(=O)O.[Na+].[Na+].[Na+] [TRISODIUM ETHYLENEDIAMINE TETRACETATE] | -4.23

same assay, conditions: NINDS set screen, single concentration printed as 20mM

Row | Molecule | 20mM inhibition LmjIPCS [%]
13 | C=C[C@@]1(C)CC(=O)[C@]2(O)[C@@]3(C)[C@@H](O)CCC(C)(C)[C@@H]3[C@H](O)[C@H](OC(C)=O)[C@@]2(C)O1 [COLFORSIN] | 51
14 | CN(C)CCOC(c1ccc(Cl)cc1)c1ccccn1 (centres unmarked) [CARBINOXAMINE] | 36
15 | CC(CCc1ccccc1)NC(C)C(O)c1ccc(O)cc1 (centres unmarked) [NYLIDRIN HYDROCHLORIDE] | 54
16 | CCCCCCc1ccc(O)cc1O [HEXYLRESORCINOL] | 47
17 | CC(=O)O[C@@H]1C[C@H]2C(C)(C)C(=O)C=C[C@]2(C)[C@H]2CC[C@@]3(C)[C@H](c4ccoc4)OC(=O)[C@H]4O[C@]43[C@@]21C [GEDUNIN] | 48
18 | Cc1cc(C(C)(C)C)c(O)c(C(C)(C)C)c1 [2,6-DI-t-BUTYL-4-METHYLPHENOL] | 36
19 | CCOC(=O)C1=C[C@]2(CC)CCCN3CCc4c(n1c1ccccc41)[C@@H]32 [VINPOCETINE] | 36
20 | C[N+](C)(C)CCOC(N)=O [CARBACHOL] | 57
21 | COLISTIMETHATE | 56
22 | CC12CCC3c4ccc(OCc5ccccc5)cc4CCC3C1C[C@@H](O)[C@@H]2O (some centres unmarked) [ESTRIOL BENZYL ETHER] | 42

same assay, conditions: NINDS set screen; read-out: inhibition LmjIPCS

Row | Molecule | inhibition [%]
23 | Cn1cc[nH]c1=S [METHIMAZOLE] | 13
24 | COC(=O)/C(=C1/OC(=O)C(c2ccccc2)=C1O)c1ccccc1 [VULPINIC ACID] | 13
25 | COC(=O)N/N=C/c1c[n+]([O-])c2ccccc2[n+]1[O-] [CARBADOX] | 12
26 | CC1=C(/C=C/C(C)=C/C=C/C(C)=C/C=C/C=C(C)/C=C/C=C(C)/C=C/C(=O)[C@]2(C)C[C@@H](O)CC2(C)C)C(C)(C)C[C@H](O)C1 [CAPSANTHIN] | 33
27 | O=C(NCO)c1cccnc1 [N-HYDROXYMETHYLNICOTINAMIDE] | 12
28 | COc1cc2cc3c4cc(OC)c(OC)cc4cc[n+]3c(C)c2cc1OC [CORALYNE] | -5
29 | O=C(O)c1cc(O)c2c(c1)C(=O)c1cc(O)cc(O)c1C2=O [EMODIC ACID] | 14
30 | O=C(CCCCCCCCCCCCC1CCCC1)Nc1ccc(S(=O)(=O)c2ccc(NC(=O)CCCCCCCCCCCCC3CCCC3)cc2)cc1 [CHAULMOSULFONE] | 32
31 | C[C@]12C=CC(=O)C=C1CC[C@H]1[C@@H]3C[C@@H](O)[C@](O)(C(=O)CO)[C@@]3(C)C[C@H](O)[C@@]12F [TRIAMCINOLONE] | -1.57
32 | CCN(CC)CCNC(=O)COc1ccc(OC)cc1 [MEFEXAMIDE] | 13
33 | Nc1ccc(S(=O)(=O)Nc2ccc(Cl)nn2)cc1 [SULFACHLORPYRIDAZINE] | 23
34 | Cn1c([N+](=O)[O-])cnc1COC(N)=O [RONIDAZOLE] | 0.0172

same assay, conditions: read-out: 20mM inhibition LmjIPCS

Row | Molecule | inhibition at 20000 µM [%]
35 | CN[C@@H]1[C@H](O)[C@H](NC)[C@H]2O[C@@]3(O)C(=O)C[C@@H](C)O[C@H]3O[C@@H]2[C@H]1O [SPECTINOMYCIN] | 19
36 | CC(C)c1c(C(=O)Nc2ccccc2)c(-c2ccccc2)c(-c2ccc(F)cc2)n1CC[C@@H](O)C[C@@H](O)CC(=O)O [ATORVASTATIN] | 9.48
37 | CC(=O)O[C@H](CC(=O)[O-])C[N+](C)(C)C [ACETYLCARNITINE] | -17
38 | CC(=O)N[C@@H](CC(C)C)C(=O)O [ACETYL-L-LEUCINE] | 8
39 | COc1cc2c(c(OC)c1OC)-c1ccc(=O)c(O)cc1[C@@H](NC(C)=O)CC2 [COLCHICEINE] | 9
40 | O=C(O)c1cc(-c2ccc(F)cc2F)ccc1O [DIFLUNISAL] | -4.4
41 | O=[N+]([O-])NC1=NCCN1Cc1ccc(Cl)nc1 [IMIDACLOPRID] | 8
42 | O=C(O)CCNC(=O)c1ccccc1 [BETAMIPRON] | -3.5
43 | CC(=O)OCC(=O)[C@@]1(O)[C@H](C)C[C@H]2[C@@H]3CCC4=CC(=O)C=C[C@]4(C)[C@@]3(F)[C@@H](O)C[C@@]21C [DEXAMETHASONE ACETATE] | -3.4
44 | CN[C@@H](C)[C@@H](O)c1ccccc1 [PSEUDOEPHEDRINE] | 2.14
45 | O=P1(N(CCCl)CCCl)NCCCO1 (centres unmarked) [CYCLOPHOSPHAMIDE] | -0.87
46 | OCc1ccccc1O[C@@H]1O[C@H](CO)[C@@H](O)[C@H](O)[C@H]1O [SALICIN] | 14
47 | CC(N/C(=N\C#N)Nc1ccncc1)C(C)(C)C (centres unmarked) | 12
48 | N[C@@H](CCC(=O)N[C@@H](CS)C(=O)NCC(=O)O)C(=O)O [GLUTATHIONE] | -0.349
49 | CS(=O)(=O)Nc1ccc([N+](=O)[O-])cc1Oc1ccccc1 [NIMESULIDE] | 11
50 | CCCN(CCC)C(=O)C(CCC(=O)O)NC(=O)c1ccccc1 (centres unmarked) [PROGLUMIDE] | 15
51 | O=C(O)c1cn(C2CC2)c2cc(N3CCNCC3)c(F)cc2c1=O [CIPROFLOXACIN] | 3
52 | c1ccc2c(c1)sc1ccccc12 [DIBENZOTHIOPHENE] | 32
53 | CC(=O)OCC(=O)[C@H]1CC[C@H]2[C@@H]3CCC4=CC(=O)CC[C@]4(C)[C@H]3CC[C@]12C [DESOXYCORTICOSTERONE ACETATE] | 17
54 | COc1ccc(OC)c(C(O)C(C)N)c1 (centres unmarked) [METHOXAMINE] | 24
55 | CC(C)[N+]1(C)[C@@H]2CC[C@H]1C[C@@H](OC(=O)C(CO)c1ccccc1)C2 (some centres unmarked) [IPRATROPIUM BROMIDE] | -7
56 | Nc1nc2c(ncn2COCCO)c(=O)[nH]1 [ACYCLOVIR] | 5
57 | C[C@]12CCC(=O)C(O)=C1CC[C@@H]1[C@@H]2CC[C@]2(C)C(=O)CC[C@@H]12 [FORMESTANE] | 18
58 | NC(=O)C[S+]([O-])C(c1ccccc1)c1ccccc1 (centres unmarked) [MODAFINIL] | 13
59 | C[N+]1(C)[C@@H]2C[C@@H](OC(=O)[C@H](CO)c3ccccc3)C[C@H]1[C@@H]1O[C@@H]12 [METHSCOPOLAMINE BROMIDE] | 10
60 | O=C1c2ccccc2-c2cccc3cccc1c23 [BENZANTHRONE] | 16
61 | c1ccc2c(CC3=NCCN3)cccc2c1 [NAPHAZOLINE] | 28
62 | N[C@H]1C(O)O[C@H](CO)[C@@H](O)[C@@H]1O (some centres unmarked) [GLUCOSAMINE] | 10
63 | [O-][n+]1ccccc1S [PYRITHIONE ZINC] | 10
64 | CC(C)NCC(O)COc1ccc(CC(N)=O)cc1 (centres unmarked) [ATENOLOL] | -6

same assay, conditions: read-out: inhibition LmjIPCS

Row | Molecule | inhibition [%]
65 | Nc1cc(N2CCCCC2)nc(N)[n+]1[O-] [MINOXIDIL] | 15
66 | CCN(CC)CCNC(=O)c1cc(Cl)c(N)cc1OC [METOCLOPRAMIDE] | 6
67 | NS(=O)(=O)c1cc2c(cc1Cl)NCNS2(=O)=O [HYDROCHLOROTHIAZIDE] | 13
68 | C[C@H]1COc2c(N3CCN(C)CC3)c(F)cc3c(=O)c(C(=O)O)cn1c23 [LEVOFLOXACIN] | 11
69 | CCOC(=O)n1ccn(C)c1=S [CARBIMAZOLE] | 12
70 | O=C1C(CC[S+]([O-])c2ccccc2)C(=O)N(c2ccccc2)N1c1ccccc1 (centres unmarked) [SULFINPYRAZONE] | -6
71 | CC(=O)CCCCn1c(=O)c2c(ncn2C)n(C)c1=O [PENTOXIFYLLINE] | 5.62
72 | Cc1c(NC(=O)c2cccnc2)c(=O)n(-c2ccccc2)n1C [NIFENAZONE] | 11
73 | C[C@]12CCC(=O)C=C1CC[C@@H]1[C@@H]2[C@@H](O)C[C@@]2(C)[C@H]1CC[C@]2(O)C(=O)CO [HYDROCORTISONE] | 13

same assay, conditions: screening of NINDS set, sheet Screen 1; read-out: inhibition LmjIPCS

Row | Molecule | inhibition [%]
74 | Cc1cc(=O)[nH]c(=S)[nH]1 [METHYLTHIOURACIL] | 7
75 | COc1ccc(/C=C/C(=O)Nc2ccccc2C(=O)O)cc1OC | 6.57
76 | CC(CN(C)C)CN1c2ccccc2CCc2ccccc21 (centres unmarked) [TRIMIPRAMINE] | 2

same assay, conditions: single concentration 20mM as printed; screening of NINDS set, sheet Screen 1

Row | Molecule | 20mM inhibition LmjIPCS [%]
77 | SPIRAMYCIN | 10
